# Data reported in publication PMC7142633, “Impact of B-Ring Substitution and Acylation with Hydroxy Cinnamic Acids on the Inhibition of Porcine α-Amylase by Anthocyanin-3-Glycosides” (Foods, 2020).
# Where two headings read alike, the source gives them in different places. Marks after values point to notes of the source that are not given here.
# Biological target: T1, α-amylase from porcine pancreas (Sus scrofa, UniProt P00690)
# T1 construct: A saline suspension of α-amylase from porcine pancreas; purchased Sigma Aldrich (Steinheim, Germany) Lot #SLBN9170V (catalogue number not given); host or cells: porcine pancreas (tissue-derived)
# T1 sequence (P00690 16-511): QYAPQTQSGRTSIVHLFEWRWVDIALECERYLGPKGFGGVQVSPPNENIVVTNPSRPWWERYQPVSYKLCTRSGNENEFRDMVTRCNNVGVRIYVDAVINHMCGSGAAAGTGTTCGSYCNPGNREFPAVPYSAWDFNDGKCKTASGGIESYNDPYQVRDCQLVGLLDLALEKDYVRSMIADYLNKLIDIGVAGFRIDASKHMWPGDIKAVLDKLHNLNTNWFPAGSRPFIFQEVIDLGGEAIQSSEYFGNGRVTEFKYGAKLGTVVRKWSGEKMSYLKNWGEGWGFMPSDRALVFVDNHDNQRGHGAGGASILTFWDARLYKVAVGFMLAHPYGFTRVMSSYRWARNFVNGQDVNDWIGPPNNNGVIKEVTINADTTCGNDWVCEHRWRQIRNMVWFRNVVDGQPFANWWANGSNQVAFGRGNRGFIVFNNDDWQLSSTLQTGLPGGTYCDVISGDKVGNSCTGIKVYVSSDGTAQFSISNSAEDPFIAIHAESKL
# Assay: α-amylase enzyme activity assay, GalG2CNP conversion, UV/Vis detection of CNP at 405 nm
# Type: biochemical
# Conditions: for IC50: read-out: IC50 (Cheng−Prussoff, Equation (9)); for Kmapp / vmaxapp: Michaelis Menten fit
# Protocol: The enzyme activity assay, […], was established by Homoki and co-workers and already used by the authors to evaluate the inhibitory strength of different phenolic structures. To enable the evaluation of the result obtained in the present study compared to the non-anthocyanin phenolics investigated previously, the assay conditions were identical. In short, to 12 different GalG2CNP concentrations ([S] = 0−2000 µM) in MES^+ buffer, inhibitor [I] and 50 µL enzyme solution (c = 1.51 units/~100 pM, on the basis of supplier information) were mixed in a microtiter plate (Greiner BioOne, Frickenhausen, Germany; transparent, F-bottom). For blanks, the enzyme solution was substituted with MES^+ buffer. The final volume per well was 250 µL. To quantify the reaction product, a linear calibration with eight different CNP concentrations in the range of 0−35 µM was performed for each plate. Dilutions of the anthocyanin stock solutions (0.1% HCl) were equilibrated at pH 6.1 for one hour. Final inhibitor concentrations were limited due to its strong absorption at 405 nm to 12.5, 25, and 50 µM. For each anthocyanin structure, the assay was conducted on two to three different days with freshly prepared stocks of substrate, enzyme, and inhibitor.
# In addition to the Michaelis Menten constant (Km) and the maximal conversion rate (vmax) values (Table S1), inhibition constants (Kic, Kiu) were calculated by fitting the data by two approaches: (i) According to the mixed inhibition equation (Equation (4)) or competitive inhibition equation (Equation (5)), applying an optimal global fit containing data from all inhibitor concentrations including the control ([I] = 0 µM); and (ii) by an independent fit according to the Michaelis Menten equation (Equation (6)), providing the apparent values Km^app and Vmax^app (Table S2) for each inhibitor concentration, which were then used to calculate the inhibition constants (Equations (7) and (8)). (4) v0= vmax/Km/[S] · (1+[I]/Kic)+(1+[I]/Kiu), (5) v0=vmax/Km/[S] · ( 1+[I]/Kic)+1, (6) v0=vmax · [S]/Km+[S], (7) Kic=vmax^app/Km^app · [I]/vmax/Km−vmax^app/Km^app, (8) Kiu=vmax^app · [I]/vmax− vmax^app.
# The IC50 values of the different anthocyanins were derived from the inhibition constants for different substrate concentrations by the Cheng−Prusoff equation (Equation (9)). (9) IC50=(Km+[S])/Km/Kic+[S]/Kiu.
# • KM: Michaelis Menten constant (µM) • vmax: Maximal conversion rate of the uninhibited reaction (µM/min) • v0: Observed conversion rate at given substrate and inhibitor concentration (µM/min) • [S]: Substrate concentration • [I]: Inhibitor concentration • Kic: Inhibitor constant, reflecting the competitive inhibition in the equation (µM) • Kiu: Inhibitor constant, reflecting the uncompetitive inhibition in the equation (µM) • vmax^app: Calculated maximal conversion rate, when the Michaelis Menten equation is used on an inhibited curve (µM/min) • Km^app: Calculated Michaelis Menten constant, when the Michaelis Menten equation is used on an inhibited curve (µM) • IC50: Half maximal inhibitory concentration (inhibitor concentration needed to achieve 50% inhibition; it is dependent on the substrate concentration) (µM)
# For data analyses and calculations, Origin 2018b (OriginLab, software extension Enzyme Kinetics) was used. The Levenberg−Marquardt algorithm procedure was chosen for iteration. All assays were performed in two independent replicates at different dates. Values are expressed in arithmetic means ± average deviation (AD). The statistical significance and differences between groups were analyzed by one-way analysis of variance (ANOVA), followed by Tukey’s test. Differences were considered significant when p < 0.05. Data were processed using Microsoft Excel® (2010).
compound,measurement,setting,value
"COc1cc(-c2[o+]c3cc(O)cc(O)c3cc2O[C@@H]2O[C@H](CO)[C@@H](O)[C@H](O)[C@H]2O)ccc1O [Peo-glc, peonidin-3-glucoside]",IC50,"(i) Kic and Kiu by global fit, [S] 10 µM",112 ± 40 µM
same,IC50,"(i) Kic and Kiu by global fit, [S] 100 µM",134 ± 46 µM
same,IC50,"(i) Kic and Kiu by global fit, [S] 10^3 µM",209 ± 65 µM
same,IC50,"(i) Kic and Kiu by global fit, [S] 10^6 µM",258 ± 78 µM
same,Kic/Kiu,"(i) global fit, Equation (4)",0.42 ± 0.23 ^a
same,Ki,"(i) global fit, mixed inhibition Equation (4), read-out: Kic",109 ± 39 µM
same,Ki,"(i) global fit, mixed inhibition Equation (4), read-out: Kiu",258 ± 78 µM
same,IC50,"(ii) Kic and Kiu by independent fit, [S] 10 µM",121 ± 42 µM
same,IC50,"(ii) Kic and Kiu by independent fit, [S] 100 µM",142 ± 49 µM
same,IC50,"(ii) Kic and Kiu by independent fit, [S] 10^3 µM",212 ± 69 µM
same,IC50,"(ii) Kic and Kiu by independent fit, [S] 10^6 µM",254 ± 82 µM
same,Ki,"(ii) independent Michaelis Menten fit (Equation (6)), calculation by Equation (7), read-out: Kic",118 ± 42 µM
same,Ki,"(ii) independent Michaelis Menten fit (Equation (6)), calculation by Equation (8), read-out: Kiu",254 ± 82 µM
same,Kic/Kiu,"(ii) independent fit, Equations (7) and (8)",0.43 ± 0.04 **^a
same,Kmapp,inhibitor c 25 µM,242 ± 8 µM
same,vmaxapp,inhibitor c 25 µM,"0,74 ± 0,14 µM/min"
same,Kmapp,inhibitor c 50 µM,256 ± 7 µM
same,vmaxapp,inhibitor c 50 µM,"0,65 ± 0,05 µM/min"
same,Kmapp,"inhibitor c 12,5 µM",211 ± 15 µM
same,vmaxapp,"inhibitor c 12,5 µM","0,77 ± 0,12 µM/min"
same,Ki,"from apparent values, inhibitor c 25 µM, read-out: Kic",107 ± 15 µM
same,Ki,"from apparent values, inhibitor c 25 µM, read-out: Kiu",250 µM
same,Ki,"from apparent values, inhibitor c 50 µM, read-out: Kic",112 ± 45 µM
same,Ki,"from apparent values, inhibitor c 50 µM, read-out: Kiu",262 ± 92 µM
same,Ki,"from apparent values, inhibitor c 12,5 µM, read-out: Kic",180 µM
same,Ki,"from apparent values, inhibitor c 12,5 µM, read-out: Kiu",360 µM
same,Ki,"mean over inhibitor c 12,5, 25, 50 µM (Supplementary 2), read-out: Kic mean ± SD",133 ± 40 µM
same,Ki,"mean over inhibitor c 12,5, 25, 50 µM (Supplementary 2), read-out: Kiu mean ± SD",290 ± 61 µM
